In the NIST ThermoML archive (doi:10.1016/j.jct.2004.11.017):
± gives the expanded uncertainty stated by the source.

Test: xn = mol fraction of the nth substance listed
Conditions: 101 kPa, Liquid

CC[S+]([O-])CC [diethyl sulfoxide] + O
mass density [kg/m3]
Conditions	298.15 K	303.15 K	308.15 K	313.15 K	318.15 K	323.15 K	328.15 K	333.15 K	338.15 K	343.15 K
x1 = 0.0997	1027.6 ± 1.7	1024.2 ± 1.7	1020.7 ± 1.6	1017.1 ± 1.6	1013.4 ± 1.5	1009.6 ± 1.4	1005.8 ± 1.4	1001.8 ± 1.3	997.8 ± 1.3	993.7 ± 1.4
x1 = 0.1996	1038.6 ± 1.9	1034.2 ± 1.8	1029.8 ± 1.8	1025.4 ± 1.7	1020.9 ± 1.6	1016.3 ± 1.5	1011.8 ± 1.5	1005.9 ± 1.4	1001.3 ± 1.3	997.1 ± 1.3
x1 = 0.2517	1038.4 ± 1.9	1033.7 ± 1.8	1029.6 ± 1.8	1025 ± 1.7	1020.5 ± 1.6	1015.8 ± 1.5	1011.2 ± 1.5	1006.4 ± 1.4	1001.7 ± 1.3	996.9 ± 1.3
x1 = 0.2978	1037.8 ± 1.9	1033.3 ± 1.8	1028.8 ± 1.7	1024.2 ± 1.7	1019.6 ± 1.6	1015 ± 1.5	1010.3 ± 1.5	1005.6 ± 1.4	1000.8 ± 1.3	996 ± 1.4
x1 = 0.3481	1035.8 ± 1.9	1031.4 ± 1.8	1026.8 ± 1.7	1022.2 ± 1.6	1017.6 ± 1.6	1013 ± 1.5	1008.3 ± 1.4	1003.6 ± 1.3	998.9 ± 1.3	994.1 ± 1.4
x1 = 0.3946	1034.7 ± 1.8	1030.2 ± 1.8	1025.7 ± 1.7	1021.2 ± 1.6	1016.6 ± 1.6	1012 ± 1.5	1007.3 ± 1.4	1002.6 ± 1.3	997.8 ± 1.3	993 ± 1.4
x1 = 0.4496	1031.6 ± 1.8	1027.2 ± 1.7	1022.7 ± 1.7	1018.3 ± 1.6	1013.8 ± 1.5	1009.2 ± 1.4	1004.5 ± 1.4	999.9 ± 1.3	995.2 ± 1.4	990.5 ± 1.4
x1 = 0.5053	1029.6 ± 1.8	1025.1 ± 1.7	1020.6 ± 1.6	1016.2 ± 1.5	1011.7 ± 1.5	1007.1 ± 1.4	1002.5 ± 1.3	997.9 ± 1.3	993.2 ± 1.4	988.5 ± 1.5
x1 = 0.5962	1026.4 ± 1.7	1022.1 ± 1.6	1017.6 ± 1.6	1013.2 ± 1.5	1008.7 ± 1.4	1004.2 ± 1.4	999.6 ± 1.3	995 ± 1.4	990.4 ± 1.4	985.7 ± 1.5
x1 = 0.6971	1021.9 ± 1.6	1017.5 ± 1.6	1013.1 ± 1.5	1008.7 ± 1.4	1004.3 ± 1.4	999.8 ± 1.3	995.3 ± 1.4	990.8 ± 1.4	986.2 ± 1.5	981.7 ± 1.6
x1 = 0.8061	1018.2 ± 1.6	1013.9 ± 1.5	1009.6 ± 1.4	1005.2 ± 1.4	1000.8 ± 1.3	996.4 ± 1.3	991.9 ± 1.4	987.4 ± 1.5	982.9 ± 1.6	978.4 ± 1.6
x1 = 0.8946	1015.3 ± 1.5	1011 ± 1.5	1006.7 ± 1.4	1002.3 ± 1.3	997.9 ± 1.3	993.5 ± 1.4	989.1 ± 1.5	984.7 ± 1.5	980.2 ± 1.6	975.7 ± 1.7
x1 = 1	1010.2 ± 1.4	1005.8 ± 1.4	1001.4 ± 1.3	997 ± 1.3	992.6 ± 1.4	988.2 ± 1.5	983.9 ± 1.5	979.5 ± 1.6	975.1 ± 1.7	970.6 ± 1.8
